From patent US5698522A, “6-position modified decapeptide LHRH antagonists” (Abbott Laboratories, priority 1995, dated 1997)
Where a SMILES comes first, the peptide text is derived from it. Side-chain parts run from the residue outwards. [ ]: non-standard residue; d: D form. The star is where a group is joined. NMePhe(4-NH(5-NH2-Trz-3-yl)) = CN[C@@H](Cc1ccc(Nc2n[nH]c(N)n2)cc1)C(=O)O; Quinoline3carbonyl = O=C(c1cnc2ccccc2c1)*; Quinoline4carbonyl = O=C(c1ccnc2ccccc12)*; dPhe(4-Cl) = N[C@H](Cc1ccc(Cl)cc1)C(=O)O; d2Nal = N[C@H](Cc1ccc2ccccc2c1)C(=O)O; Lys(iPr) = CC(C)NCCCC[C@H](N)C(=O)O; NMeY = CN[C@@H](Cc1ccc(O)cc1)C(=O)O; Thiophene2carbonyl = O=C(c1cccs1)*; Pyrazinecarbonyl = O=C(c1cnccn1)*; d3Pal = N[C@H](Cc1cccnc1)C(=O)O; Salicyloyl = O=C(c1ccccc1O)*; Nicotinoyl = O=C(c1cccnc1)*; dOrn = NCCC[C@@H](N)C(=O)O; 2Furoyl = O=C(c1ccco1)*; X2 = O=C(c1ccoc1)*; GABA = NCCCC(=O)O; azaGly = NNC(=O)O

Biological target: T1, LHRH receptor (Rattus norvegicus, UniProt P30969)
T1 construct: endogenous in cells
T1 sequence (P30969 1-327): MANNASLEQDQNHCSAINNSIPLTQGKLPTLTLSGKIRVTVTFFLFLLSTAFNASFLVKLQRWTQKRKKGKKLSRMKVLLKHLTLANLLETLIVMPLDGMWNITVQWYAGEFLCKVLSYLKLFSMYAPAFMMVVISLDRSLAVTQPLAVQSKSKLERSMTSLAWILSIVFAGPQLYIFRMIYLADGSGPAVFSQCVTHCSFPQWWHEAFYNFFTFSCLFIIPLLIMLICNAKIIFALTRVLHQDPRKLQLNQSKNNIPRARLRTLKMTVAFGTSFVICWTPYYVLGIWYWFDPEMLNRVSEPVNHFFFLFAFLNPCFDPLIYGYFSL
Experiment: in vitro LHRH antagonist potency (pA2) against the agonist leuprolide
Assay type: cell-based
Conditions: negative logarithm of the antagonist concentration which shifts the response curve produced by the agonist leuprolide to two-fold higher concentration
Procedure: Representative compounds of the present invention were evaluated in in vitro tests for receptor binding (pKI) and for LHRH antagonist potency (pA2). The tests employed the methods detailed in F. Haviv, et al., J. Med. Chem., 32: 2340-2344 (1989). The receptor binding affinities (pKI) are the negative logarithms of the equilibtirum dissociation constants (pA2) are the negative logarithms of the concentration of antagonist which shift the response curve roduced by the agonist leuprolide to two-fold higher concentration. (Leuprolide is the LHRH agonist having the structure 5-oxo-Pro^1 -His^2 -Trp^3 -Ser^4 -Tyr^5 -D-Leu^6 -Leu^7 -Arg^8 -Pro^9 -NHEt and is disclosed and claimed in U.S. Pat. No. 4,005,063.) Typically pA2 values of 9.5 or greater are indicative of good LHRH antagonist potency.

Q: How did the Kb turn out when `CC(=O)N[C@H](Cc1ccc2ccccc2c1)C(=O)N[C@H](Cc1ccc(Cl)cc1)C(=O)N[C@H](Cc1cccnc1)C(=O)N[C@@H](CO)C(=O)N(C)[C@@H](Cc1ccc(O)cc1)C(=O)N[C@H](CCCCNC(=O)[C@@H](CO)NC(=O)c1cnc2ccccc2c1)C(=O)N[C@@H](CC(C)C)C(=O)N[C@@H](CCCNC(=N)N)C(=O)N1CCC[C@H]1C(=O)N[C@H](C)C(N)=O` [Example 50d, NAc-D2Nal^1 -D4ClPhe^2 -D3Pal^3 -Ser^4 -NMeTyr^5 -DLys(N-epsilon-DSer-3-Quinolinyl)^6 -Leu^7 -Arg^8 -Pro^9 -DAla^10 NH2] (Ac-[d2Nal][dPhe(4-Cl)][d3Pal]S[NMeY][dK]([dS-Quinoline3carbonyl])LRP[dA]-NH2) was run?
A: Its Kb is 0.0479 nM.

Q: How did the Kb turn out when `CC(=O)N[C@H](Cc1ccc2ccccc2c1)C(=O)N[C@H](Cc1ccc(Cl)cc1)C(=O)N[C@H](Cc1cccnc1)C(=O)N[C@@H](CO)C(=O)N(C)[C@@H](Cc1ccc(O)cc1)C(=O)N[C@H](CCCNC(=O)CNC(=O)c1cccnc1)C(=O)N[C@@H](CC(C)C)C(=O)N[C@@H](CCCCNC(C)C)C(=O)N1CCC[C@H]1C(=O)N[C@H](C)C(N)=O` [Example 54, NAc-D2Nal^1 -D4ClPhe^2 -D3Pal^3 -Ser^4 -NMeTyr^5 -DOrn(N-epsilon-Gly-Nicotinyl)^6 -Leu^7 -Lys(N-epsilon-Isopropyl)^8 -Pro^9 -DAla^10 NH2] (Ac-[d2Nal][dPhe(4-Cl)][d3Pal]S[NMeY][dOrn]([Gly-Nicotinoyl])L[Lys(iPr)]P[dA]-NH2) was run?
A: Its Kb is 0.0302 nM.

Q: Which Kb does the source give for `CC(=O)N[C@H](Cc1ccc2ccccc2c1)C(=O)N[C@H](Cc1ccc(Cl)cc1)C(=O)N[C@H](Cc1cccnc1)C(=O)N[C@@H](CO)C(=O)N(C)[C@@H](Cc1ccc(O)cc1)C(=O)N[C@H](CCCCNC(=O)NNC(=O)c1ccco1)C(=O)N[C@@H](CC(C)C)C(=O)N[C@@H](CCCNC(=N)N)C(=O)N1CCC[C@H]1C(=O)N[C@H](C)C(N)=O` [Example 37a, NAc-D2Nal^1 -D4ClPhe^2 -D3Pal^3 -Ser^4 -NMeTyr^5 -DLys(N-epsilon-Azagly-2-Furoyl)^6 -Leu^7 -Arg^8 -Pro^9 -DAla^10 NH2] (Ac-[d2Nal][dPhe(4-Cl)][d3Pal]S[NMeY][dK]([azaGly-2Furoyl])LRP[dA]-NH2) here?
A: The Kb was 0.0166 nM.

Q: `CC(=O)N[C@H](Cc1ccc2ccccc2c1)C(=O)N[C@H](Cc1ccc(Cl)cc1)C(=O)N[C@H](Cc1cccnc1)C(=O)N[C@@H](CO)C(=O)N(C)[C@@H](Cc1ccc(O)cc1)C(=O)N[C@H](CCCNC(=O)CNC(=O)c1cccnc1)C(=O)N[C@@H](CC(C)C)C(=O)N[C@@H](CCCNC(=N)N)C(=O)N1CCC[C@H]1C(=O)N[C@H](C)C(N)=O` [Example 49a, NAc-D2Nal^1 -D4ClPhe^2 -D3Pal^3 -Ser^4 -NMeTyr^5 -DOrn(N-epsilon-Gly-Nicotinyl)^6 -Leu^7 -Arg^8 -Pro^9 -DAla^10 NH2] (Ac-[d2Nal][dPhe(4-Cl)][d3Pal]S[NMeY][dOrn]([Gly-Nicotinoyl])LRP[dA]-NH2) was tested. Which Kb did it give?
A: The Kb was 0.0155 nM.

Q: Which Kb does the source give for `CC(=O)N[C@H](Cc1ccc2ccccc2c1)C(=O)N[C@H](Cc1ccc(Cl)cc1)C(=O)N[C@H](Cc1cccnc1)C(=O)N[C@@H](CO)C(=O)N(C)[C@@H](Cc1ccc(O)cc1)C(=O)N[C@H](CCCCNC(=O)[C@@H](CO)NC(=O)c1ccoc1)C(=O)N[C@@H](CC(C)C)C(=O)N[C@@H](CCCNC(=N)N)C(=O)N1CCC[C@H]1C(=O)N[C@H](C)C(N)=O` [Example 65b, NAc-D2Nal^1 -D4ClPhe^2 -D3Pal^3 -Ser^4 -NMeTyr^5 -DLys(N-epsilon-DSer-3Furoyl)^6 -Leu^7 -Arg^8 -Pro^9 -DAla^10 NH2] (Ac-[d2Nal][dPhe(4-Cl)][d3Pal]S[NMeY][dK]([dS-X2])LRP[dA]-NH2) here?
A: The Kb was 0.00229 nM.

Q: How did the Kb turn out when `CC(=O)N[C@H](Cc1ccc2ccccc2c1)C(=O)N[C@H](Cc1ccc(Cl)cc1)C(=O)N[C@H](Cc1cccnc1)C(=O)N[C@@H](CO)C(=O)N(C)[C@@H](Cc1ccc(O)cc1)C(=O)N[C@H](CCCCNC(=O)[C@@H](CO)NC(=O)c1ccnc2ccccc12)C(=O)N[C@@H](CC(C)C)C(=O)N[C@@H](CCCNC(=N)N)C(=O)N1CCC[C@H]1C(=O)N[C@H](C)C(N)=O` [Example 50e, NAc-D2Nal^1 -D4ClPhe^2 -D3Pal^3 -Ser^4 -NMeTyr^5 -DLys(N-epsilon-DSer-4-Quinolinyl)^6 -Leu^7 -Arg^8 -Pro^9 -DAla^10 NH2] (Ac-[d2Nal][dPhe(4-Cl)][d3Pal]S[NMeY][dK]([dS-Quinoline4carbonyl])LRP[dA]-NH2) was run?
A: Its Kb is 0.0288 nM.

Q: `CC(=O)N[C@H](Cc1ccc2ccccc2c1)C(=O)N[C@H](Cc1ccc(Cl)cc1)C(=O)N[C@H](Cc1cccnc1)C(=O)N[C@@H](CO)C(=O)N(C)[C@@H](Cc1ccc(O)cc1)C(=O)N[C@H](CCCCNC(=O)[C@@H](CO)NC(=O)c1cnccn1)C(=O)N[C@@H](CC(C)C)C(=O)N[C@@H](CCCNC(=N)N)C(=O)N1CCC[C@H]1C(=O)N[C@H](C)C(N)=O` [Example 50g, NAc-D2Nal^1 -D4ClPhe^2 -D3Pal^3 -Ser^4 -NMeTyr^5 -DLys(N-epsilon-DSer-2-Pyrazinecarbonyl)^6 -Leu^7 -Arg^8 -Pro^9 -DAla^10 NH2] (Ac-[d2Nal][dPhe(4-Cl)][d3Pal]S[NMeY][dK]([dS-Pyrazinecarbonyl])LRP[dA]-NH2) was tested. Which Kb did it give?
A: The Kb was 0.0126 nM.

Q: `CC(=O)N[C@H](Cc1ccc2ccccc2c1)C(=O)N[C@H](Cc1ccc(Cl)cc1)C(=O)N[C@H](Cc1cccnc1)C(=O)N[C@@H](CO)C(=O)N(C)[C@@H](Cc1ccc(Nc2n[nH]c(N)n2)cc1)C(=O)N[C@H](CCCCNC(=O)NNC(=O)c1cccnc1)C(=O)N[C@@H](CC(C)C)C(=O)N[C@@H](CCCCNC(C)C)C(=O)N1CCC[C@H]1C(=O)N[C@H](C)C(N)=O` [Example 46, NAc-D2Nal^1 -D4ClPhe^2 -D3Pal^3 -Ser^4 -NMePhe(Atz)^5 -DLys(N-epsilon-Azagly-Nicotinyl)^6 -Leu^7 -Lys(N-epsilon-Isopropyl)^8 -Pro^9 -DAla^10 NH2] (Ac-[d2Nal][dPhe(4-Cl)][d3Pal]S[NMePhe(4-NH(5-NH2-Trz-3-yl))][dK]([azaGly-Nicotinoyl])L[Lys(iPr)]P[dA]-NH2) was tested. Which Kb did it give?
A: The Kb was 0.011 nM.

Q: How did the Kb turn out when `CC(=O)N[C@H](Cc1ccc2ccccc2c1)C(=O)N[C@H](Cc1ccc(Cl)cc1)C(=O)N[C@H](Cc1cccnc1)C(=O)N[C@@H](CO)C(=O)N(C)[C@@H](Cc1ccc(O)cc1)C(=O)N[C@H](CCCNC(=O)[C@@H](CO)NC(=O)c1cccnc1)C(=O)N[C@@H](CC(C)C)C(=O)N[C@@H](CCCNC(=N)N)C(=O)N1CCC[C@H]1C(=O)N[C@H](C)C(N)=O` [Example 49b, NAc-D2Nal^1 -D4ClPhe^2 -D3Pal^3 -Ser^4 -NMeTyr^5 -DOrn(N-epsilon-DSer-Nicotinyl)^6 -Leu^7 -Arg^8 -Pro^9 -DAla^10 NH2] (Ac-[d2Nal][dPhe(4-Cl)][d3Pal]S[NMeY][dOrn]([dS-Nicotinoyl])LRP[dA]-NH2) was run?
A: Its Kb is 0.0155 nM.

Q: With `CC(=O)N[C@H](Cc1ccc2ccccc2c1)C(=O)N[C@H](Cc1ccc(Cl)cc1)C(=O)N[C@H](Cc1cccnc1)C(=O)N[C@@H](CO)C(=O)N(C)[C@@H](Cc1ccc(O)cc1)C(=O)N[C@H](CCCCNC(=O)CCCNC(=O)CNC(=O)c1ccco1)C(=O)N[C@@H](CC(C)C)C(=O)N[C@@H](CCCCNC(C)C)C(=O)N1CCC[C@H]1C(=O)N[C@H](C)C(N)=O` [Example 57e, NAc-D2Nal^1 -D4ClPhe^2 -D3Pal^3 -Ser^4 -NMeTyr^5 -DLys(N-epsilon-4-aminobutyryl-glycyl-furoyl)^6 -Leu^7 -Lys(Isp)^8 -Pro^9 -DAla^10 NH2] (Ac-[d2Nal][dPhe(4-Cl)][d3Pal]S[NMeY][dK]([GABA-Gly-2Furoyl])L[Lys(iPr)]P[dA]-NH2) as the molecule, how does the Kb read?
A: Its Kb is 0.012 nM.

Q: Which Kb does the source give for `CC(=O)N[C@H](Cc1ccc2ccccc2c1)C(=O)N[C@H](Cc1ccc(Cl)cc1)C(=O)N[C@H](Cc1cccnc1)C(=O)N[C@@H](CO)C(=O)N(C)[C@@H](Cc1ccc(O)cc1)C(=O)N[C@H](CCCCNC(=O)CNC(=O)c1ccccc1O)C(=O)N[C@@H](CC(C)C)C(=O)N[C@@H](CCCCNC(C)C)C(=O)N1CCC[C@H]1C(=O)N[C@H](C)C(N)=O` [Example 19b, NAc-D2Nal^1 -D4ClPhe^2 -D3Pal^3 -Ser^4 -NMeTyr^5 -DLys[N-epsilon-Gly-Salicyl]^6 -Leu^7 -Lys(N-epsilon-Isopropyl)^8 -Pro^9 -DAla^10 NH2] (Ac-[d2Nal][dPhe(4-Cl)][d3Pal]S[NMeY][dK]([Gly-Salicyloyl])L[Lys(iPr)]P[dA]-NH2) here?
A: Its Kb is 0.00661 nM.

Q: With `CC(=O)N[C@H](Cc1ccc2ccccc2c1)C(=O)N[C@H](Cc1ccc(Cl)cc1)C(=O)N[C@H](Cc1cccnc1)C(=O)N[C@@H](CO)C(=O)N(C)[C@@H](Cc1ccc(O)cc1)C(=O)N[C@H](CCCCNC(=O)NNC(=O)c1cccs1)C(=O)N[C@@H](CC(C)C)C(=O)N[C@@H](CCCCNC(C)C)C(=O)N1CCC[C@H]1C(=O)N[C@H](C)C(N)=O` [Example 5b, NAc-D2Nal^1 -D4ClPhe^2 -D3Pal^3 -Ser^4 -NMeTyr^5 -DLys(N-epsilon-Azagly-2-Thienylcarbonyl)^6 -Leu^7 -Lys(N-epsilon-Isopropyl)^8 -Pro^9 -DAla^10 NH2] (Ac-[d2Nal][dPhe(4-Cl)][d3Pal]S[NMeY][dK]([azaGly-Thiophene2carbonyl])L[Lys(iPr)]P[dA]-NH2) as the molecule, how does the Kb read?
A: Its Kb is 0.00295 nM.
